In PubChem BioAssay AID296 (DTP/NCI, 2004) one finds T/C data, which are given here for 20 compounds.

Where “and” joins values, the source holds several entries; their conditions need not be identical. Equal values may be shown once. Records with an inconclusive call do not appear.

This test concerns MX-1 breast xenograft, nude mice, tumor weight T/C. Kind of test: NCI In Vivo Anticancer Drug Screen. Data for tumor model Human Mammary Carcinoma MX-1 Xenograft (intrarenal inoculation) in NU/NU Swiss (nude) mice. The note with it: endpoint: mean tumor weight change, higher = larger tumour. The gist of the method:
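Tumor-bearing mice were treated with test compound alongside a vehicle-treated control group. Survival or tumor size was measured, and activity is expressed as the treated-group value divided by the control-group value.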
A general note: A xenograft is tissue or cells of one species grown in another, often human tumour cells in immunodeficient mice.

[1] abbreviates: dose: 150.0 mg/kg/injection, schedule: Q04DX003 (sc), vehicle: suspension in saline.
[2] abbreviates: dose: 300.0 mg/kg/injection, schedule: Q04DX003 (sc), vehicle: suspension in saline.
Setting [3] is: dose: 600.0 mg/kg/injection, schedule: Q04DX003 (sc), vehicle: suspension in saline.
The mark [4] stands for this setting: dose: 100.0 mg/kg/injection, schedule: Q01DX010 (sc), vehicle: saline with Tween-80.
The mark [5] stands for this setting: dose: 200.0 mg/kg/injection, schedule: Q01DX010 (sc), vehicle: saline with Tween-80.
The mark [6] stands for this setting: dose: 300.0 mg/kg/injection, schedule: Q04DX003 (sc), vehicle: Klucel (hydroxypropylcellulose) (HPC).
Setting [7] is: dose: 600.0 mg/kg/injection, schedule: Q04DX003 (sc), vehicle: Klucel (hydroxypropylcellulose) (HPC).
[8] abbreviates: dose: 1200.0 mg/kg/injection, schedule: Q04DX003 (sc), vehicle: Klucel (hydroxypropylcellulose) (HPC).
Setting [9] is: dose: 2400.0 mg/kg/injection, schedule: Q04DX003 (sc), vehicle: Klucel (hydroxypropylcellulose) (HPC).
Setting [10] is: dose: 50.0 mg/kg/injection, schedule: Q01DX010 (sc), vehicle: saline with Tween-80.
Where [11] appears, read: dose: 400.0 mg/kg/injection, schedule: Q01DX010 (sc), vehicle: saline with Tween-80.

In the case of `CCC1=C[C@H]2CN(CCc3c([nH]c4ccccc34)[C@@](C(=O)OC)(c3cc4c(cc3OC)N(C)[C@H]3[C@@](O)(C(=O)NC)[C@H](OC(C)=O)[C@]5(CC)C=CCN6CC[C@]43[C@@H]65)C2)C1`, the T/C was 48 % of control (dose: 1.0 mg/kg/injection, schedule: Q04DX003 (sc), vehicle: water) and 45 % of control (dose: 2.0 mg/kg/injection, schedule: Q04DX003 (sc), vehicle: water).
In the case of `O=C1c2c(O)cccc2-c2nn(CCNCCO)c3ccc(NCCNCCO)c1c23`, the T/C (dose: 11.0 mg/kg/injection, schedule: Q04DX003 (ip), vehicle: water) is -100 % of control.
For the compound `O=C1OC(=O)[C@H]2[C@@H]1[C@H]1C=C[C@@H]2OC1=O`, the T/C was 83 % of control (dose: 25.0 mg/kg/injection, schedule: Q04DX003 (sc), vehicle: suspension in saline); 101 % of control (dose: 50.0 mg/kg/injection, schedule: Q04DX003 (sc), vehicle: suspension in saline); 89 % of control (dose: 100.0 mg/kg/injection, schedule: Q04DX003 (sc), vehicle: suspension in saline); 91 % of control under setting [1]; 90 % of control (dose: 200.0 mg/kg/injection, schedule: Q04DX003 (sc), vehicle: suspension in saline); 109 % of control under setting [2]. For the same compound, the T/C under setting [3] is 89 % of control.
In the case of `CCOC(C)C(/C=N/NC(N)=S)=NNC(N)=S` (configuration not stated), the T/C is 167 % of control under setting [4]; 123 % of control under setting [5]; 96 % of control (dose: 800.0 mg/kg/injection, schedule: Q01DX010 (sc), vehicle: saline with Tween-80).
For the compound `O=c1[nH]cnc2[nH]ncc12`, the T/C reads like this: under setting [1], 46 % of control; under setting [2], 44 % of control; under setting [3], 119 % of control; (dose: 1200.0 mg/kg/injection, schedule: Q04DX003 (sc), vehicle: suspension in saline) 112 % of control.
With `CCOc1ccc(-c2nc3ccc(-c4nc5ccc(N6CCN(C)CC6)cc5[nH]4)cc3[nH]2)cc1`, the T/C (dose: 25.0 mg/kg/injection, schedule: Q04DX003 (ip), vehicle: saline) was 96 % of control.
For `c1cc[c]([Sn][c]2ccccc2)cc1`, the T/C (dose: 20.0 mg/kg/injection, schedule: Q01DX010 (sc), vehicle: saline) is 112 % of control; the T/C (dose: 40.0 mg/kg/injection, schedule: Q01DX010 (sc), vehicle: saline) is 84 % of control; the T/C (dose: 80.0 mg/kg/injection, schedule: Q01DX010 (sc), vehicle: saline) was 74 % of control; the T/C (dose: 160.0 mg/kg/injection, schedule: Q01DX010 (sc), vehicle: saline) is 115 % of control.
As for `Nc1nc([Se])c2ncn(C3OC(CO)C(O)C3O)c2n1` (configuration not stated), the T/C reads like this: (dose: 2.0 mg/kg/injection, schedule: Q01DX010 (sc), vehicle: saline) 85 % of control and 101 % of control; (dose: 6.66 mg/kg/injection, schedule: Q04DX003 (ip), vehicle: saline) 76 % of control; (dose: 6.66 mg/kg/injection, schedule: Q04DX003 (sc), vehicle: saline) 72 % of control; (dose: 8.0 mg/kg/injection, schedule: Q01DX010 (ip), vehicle: saline) 45 % of control; (dose: 13.33 mg/kg/injection, schedule: Q04DX003 (ip), vehicle: saline) 46 % of control; (dose: 26.65 mg/kg/injection, schedule: Q04DX003 (ip), vehicle: saline) 74 % of control. In addition, the T/C runs as follows: (dose: 53.3 mg/kg/injection, schedule: Q04DX003 (ip), vehicle: saline) 63 % of control; (dose: 53.33 mg/kg/injection, schedule: Q04DX003 (sc), vehicle: saline) 89 % of control.
For `CCc1c(CC(=O)O)c2cc(C)ccc2n1Cc1ccc(Cl)cc1`, the T/C reads like this: under setting [6], 71 % of control; under setting [7], 86 % of control; under setting [8], 51 % of control; under setting [9], 49 % of control.
Turning to `C/C(=N\NC(=S)N1CC2CCC(CC2)C1)c1cccc(C)n1`, for the setting “dose: 50.0 mg/kg/injection, schedule: Q04DX003 (ip), vehicle: saline with Tween-80”, the T/C is 79 % of control.
For the compound `Cc1ncc([N+](=O)[O-])n1CCSC(N)=O`, the T/C by setting is: under setting [10], 103 % of control; under setting [4], 15 % of control; (dose: 200.0 mg/kg/injection, schedule: Q01DX009 (sc), vehicle: saline with Tween-80) 17 % of control; (dose: 400.0 mg/kg/injection, schedule: Q01DX009 (sc), vehicle: saline with Tween-80) 42 % of control; under setting [11], 77 % of control and 83 % of control and 86 % of control; (dose: 800.0 mg/kg/injection, schedule: Q01DX009 (sc), vehicle: saline with Tween-80) 5 % of control.
With `Oc1c(Cl)cc(Cl)cc1C1N2CCCCC2C2c3cccn3-c3ccccc3N21` (configuration not stated), the T/C under setting [6] was 105 % of control, the T/C under setting [7] was 66 % of control, the T/C under setting [8] was 88 % of control and the T/C under setting [9] is 82 % of control.
In the case of `O=Cc1ccccc1`, the T/C is 96 % of control (dose: 200.0 mg/kg/injection, schedule: Q04DX003 (sc), vehicle: Klucel (hydroxypropylcellulose) (HPC)); 92 % of control (dose: 400.0 mg/kg/injection, schedule: Q04DX003 (sc), vehicle: Klucel (hydroxypropylcellulose) (HPC)); 85 % of control (dose: 800.0 mg/kg/injection, schedule: Q04DX003 (sc), vehicle: Klucel (hydroxypropylcellulose) (HPC)).
In the case of `CCN(CC)CCn1[nH]c2c3ccc(=O)cc3sc3c(NCCN)ccc1c32`, the T/C is 73 % of control (dose: 6.25 mg/kg/injection, schedule: Q04DX003 (ip), vehicle: water) and 63 % of control (dose: 12.5 mg/kg/injection, schedule: Q04DX003 (ip), vehicle: water).
`O=C(O)C1CC(O)CN1` (configuration not stated): the T/C was 67 % of control (dose: 150.0 mg/kg/injection, schedule: Q04DX003 (sc), vehicle: saline); 120 % of control (dose: 300.0 mg/kg/injection, schedule: Q04DX003 (sc), vehicle: saline); 91 % of control (dose: 600.0 mg/kg/injection, schedule: Q04DX003 (sc), vehicle: saline); 106 % of control (dose: 1200.0 mg/kg/injection, schedule: Q04DX003 (sc), vehicle: saline).
Turning to `CC1=C(/C=C/C(C)=C/C=C/C(C)=C/C(=O)O)C(C)(C)CCC1`, the T/C (dose: 25.0 mg/kg/injection, schedule: Q01DX010 (sc), vehicle: saline with Tween-80) was 86 % of control; the T/C under setting [10] is 58 % of control; the T/C under setting [4] was 52 % of control.
For the compound `Cc1nc(N)nc(N)c1-c1ccc(Cl)c(Cl)c1`, the T/C is 100 % of control (dose: 0.47 mg/kg/injection, schedule: Q04DX003 (sc), vehicle: saline); 80 % of control (dose: 0.94 mg/kg/injection, schedule: Q04DX003 (sc), vehicle: saline); 84 % of control (dose: 3.0 mg/kg/injection, schedule: Q04DX003 (sc), vehicle: saline); 102 % of control (dose: 3.75 mg/kg/injection, schedule: Q04DX003 (sc), vehicle: saline); 107 % of control (dose: 6.0 mg/kg/injection, schedule: Q04DX003 (sc), vehicle: saline); 87 % of control (dose: 12.0 mg/kg/injection, schedule: Q04DX003 (sc), vehicle: saline).
`Cc1ccc(S(=O)(=O)NC(=S)S)cc1`: the T/C was 98 % of control under setting [5] and 93 % of control under setting [11].
For `CCC(=O)N(C)[C@@H](C)C(=O)O[C@H]1CC(=O)N(C)c2cc(cc(OC)c2Cl)C/C(C)=C/C=C[C@@H](OC)[C@@]2(O)C[C@H](OC(=O)N2)[C@@H](C)[C@@H]2O[C@@]12C`, the T/C reads like this: (dose: 0.07 mg/kg/injection, schedule: Q04DX003 (sc), vehicle: saline + alcohol) 117 % of control; (dose: 0.13 mg/kg/injection, schedule: Q04DX003 (sc), vehicle: saline + alcohol) 98 % of control; (dose: 0.25 mg/kg/injection, schedule: Q04DX003 (sc), vehicle: saline + alcohol) 88 % of control; (dose: 0.5 mg/kg/injection, schedule: Q04DX003 (sc), vehicle: saline + alcohol) 7 % of control.
In the case of `CC(=O)N(C)c1ccc(Nc2cc(C)[nH]c3ccc4ncnc4c23)cc1`, the T/C (dose: 50.0 mg/kg/injection, schedule: Q04DX003 (sc), vehicle: saline with Tween-80) is 102 % of control; the T/C (dose: 100.0 mg/kg/injection, schedule: Q04DX003 (sc), vehicle: saline with Tween-80) was 84 % of control; the T/C (dose: 200.0 mg/kg/injection, schedule: Q04DX003 (sc), vehicle: saline with Tween-80) was 69 % of control.
